Experiment [1] concerns Human immunodeficiency virus 1. As to the kind of experiment: Effective dose was evaluated for the inhibition of viral replication (PBMC). Format: functional. The following applies: read-out: ED50 (the source's name).
The target of experiment [2] is Human immunodeficiency virus type 1 reverse transcriptase (Human immunodeficiency virus 1) (UniProt Q72547). Nature of the experiment: Compound was tested in vitro for percent inhibition of HIV- I reverse transcriptase (RT) at dose 100 uM.

Results on three molecules are retold here after ChEMBL document CHEMBL1128799, “Design and synthesis of a conformationally constrained analog of the bis(heteroaryl)piperazine (BHAP) HIV-1 reverse transcriptase inhibitor atevirdine” (Bioorg Med Chem Lett, 1995).

Molecules are shown by their SMILES. Structures can show the parent of a compound that is named as a salt.

In the case of `CCNc1cccnc1N1CCN(C(=O)c2cc3cc(OC)ccc3[nH]2)CC1` [ATEVIRDINE SULPHATE], the EC50 in experiment [1] stood at 1 nM.
As for `CCN1CC2(CCN(C(=O)c3cc4cc(NS(C)(=O)=O)ccc4[nH]3)CC2)c2ncccc21`, in experiment [2], the inhibition (as a rule, the drop in the measured response relative to a control, in per cent) was 38%.
`CC(C)Nc1cccnc1N1CCN(C(=O)c2cc3cc(NS(C)(=O)=O)ccc3[nH]2)CC1` [DELAVIRDINE MESYLATE]: the EC50 in experiment [1] stood at 0.1 nM.
